Common to all, as to type: in vivo
The subject of test [1] is human subject suffering from osteoarthritis. The test is described as follows: Example B: oral capsule treatment of osteoarthritis. The following applies: capsule containing 70 mg daily for 5 years. The method, then:
A capsule for oral administration, according to the present invention, is made comprising:
A human subject weighing 90 kg (198 lbs.), suffering from osteoarthritis, is treated by a method of this invention. Specifically, for 5 years, a capsule containing 70 mg of the compound of Example 3 is administered daily to said subject.

Test [2] deals with patient suffering from chemical burns. The test is described as follows: Example D: topical composition for chemical burns. The following applies: 0.20% w/v topical composition at each dressing change (b.i.d.). From the text: A topical composition for local administration, according to the present invention, is made comprising:
A patient suffering from chemical burns applies the composition at each dressing change (b.i.d.).

Test [3] relates to asthma sufferer. Nature of the test: Example E: inhalation aerosol for asthma. As to conditions: 5.0% w/v aerosol, 0.01 mL sprayed into the mouth while inhaling.
Test [4] concerns human subject suffering from rheumatoid arthritis. The test is described as follows: Example A: oral tablet treatment of rheumatoid arthritis. The following applies: tablet with 15 mg compound, three tablets per day orally for 2 years. The procedure:
A tablet composition for oral administration, according to the present invention, is made comprising:
A human subject weighing 60 kg (132 lbs), suffering from rheumatoid arthritis, is treated by a method of this invention. Specifically, for 2 years, a regimen of three tablets per day is administered orally to said subject.

Test [5] concerns human subject with a premetastatic tumor. Nature of the test: Example G: parenteral suspension injected next to a premetastatic tumor. As to conditions: 100 mg/mL suspension, about 2.0 mL injected beside the tumor twice daily, after 30 days. The procedure:
A composition for parenteral administration is made comprising:
The above ingredients are mixed, forming a suspension. Approximately 2.0 mL of the suspension is administered, via injection, to a human subject with a premetastatic tumor. The injection site juxtaposes the tumor. This dosage is repeated twice daily, for approximately 30 days.

Test [6] has as its system patient having deep corneal abrasion. The test is described as follows: Example C: saline-based eye drop for deep corneal abrasion. As to conditions: 5% w/w drop to each eye twice a day. From the text: A saline-based composition for local administration, according to the present invention, is made comprising:
A patient having deep corneal abrasion applies the drop to each eye twice a day.

From patent US20030144292A1, “Carbocyclic side chain containing, N-substituted metalloprotease inhibitors” (priority 2000, published 2003) come the findings set out here.

On to `CN([C@@H](C(=O)O)C1CCC2(CC1)OCCCO2)S(=O)(=O)c1ccc(-c2ccc(Br)cc2)cc1` [Example 3, (R)-N-{[4′-bromo-(1,1′-biphenyl)-4-yl]-sulfonyl}-N-methylamino-(1,5-dioxa-spiro[5.5]undec-9-yl)-acetic Acid], for which the “advancement of erosion/fibrillation of the articular cartilage (x-ray, arthroscopy and/or MRI)” value in test [1] was “no further advancement”.

`COc1ccc(-c2ccc(S(=O)(=O)N(C)C(C(=O)O)C3CCC(N4CCOC4=O)CC3)cc2)cc1` (centres unmarked) [Example 21, N-{[4′-Methoxy-(1,1′-biphenyl)-4-yl]-sulfonyl-N-methylamino}-[4-(oxazolidin-2-one-3N-yl)-cyclohexan-1-yl]-acetic Acid]: the scarring result in test [2] is given as “substantially diminished”.

In the case of `COc1ccc(-c2ccc(S(=O)(=O)N(C)C(C(=O)O)C3CCC(N4CCCC4=O)CC3)cc2)cc1` (centres unmarked) [Example 19, N-{[4′-Methoxy-(1,1′-biphenyl)-4-yl]-sulfonyl-N-methylamino}-[4-(2-oxopyrrolidin-1N-yl)-cyclohexan-1-yl]-acetic Acid], the asthma symptoms result in test [3] is “diminished”.

Turning to `COc1ccc(-c2ccc(S(=O)(=O)N(C)C(C(=O)O)C3CCC(O)CC3)cc2)cc1` (centres unmarked) [Example 1, N-{[4′-Methoxy-(1,1′-biphenyl)-4-yl]-sulfonyl-N-methyl-amino}-(4-hydroxycyclohexan-1-yl)-acetic Acid], in test [4], the “inflammation at end of treatment period” value is on record as “reduced inflammation”; the “mobility and pain at end of treatment period” value is given as “improved mobility without concomitant pain”.

As for `COc1ccc(-c2ccc(S(=O)(=O)N(C)[C@@H](C(=O)O)C3CCC4(CC3)OCCCO4)cc2)cc1` [Example 2, (R)-N-{[4′-methoxy-(1,1′-biphenyl)-4-yl]-sulfonyl}-N-methylamino-(1,5-dioxa-spiro[5.5]undec-9-yl)-acetic Acid], the “symptoms of the disease” value in test [5] is reported as “subside”.

For `COc1ccc(-c2ccc(S(=O)(=O)N(C)C(C(=O)O)C3(SC)CCCC4(C3)OCCO4)cc2)cc1` (centres unmarked) [Example 10, (7-methylthio-1,4-Dioxaspiro[4.5]dec-7-yl)-N-{[4′-Methoxy-(1,1′-biphenyl)-4-yl]-sulfonyl}-N-methylamino-acetic Acid], in test [6], the “healing of corneal abrasion” value is on record as “speeded” and the visual sequelae result is recorded as “no visual sequelae”.
